ChEMBL document CHEMBL1697692, “Developing structure-activity relationships for the prediction of hepatotoxicity” (Chem Res Toxicol, 2010)

Test system: Hepatotoxicity
Experiment: Literature-mined public compounds from Greene et al multi-species hepatotoxicity modelling dataset

Row | Molecule | Hepatotoxicity
1 | CCOc1ccc2ccccc2c1C(=O)N[C@@H]1C(=O)N2[C@@H]1SC(C)(C)[C@@H]2C(=O)[O-].O.[Na+] [NAFCILLIN SODIUM] | WE: Weak evidence (<10 case reports) of human hepatotoxicity
2 | C=C[C@H]1CN2CC[C@H]1C[C@H]2[C@H](O)c1ccnc2ccc(OC)cc12.C=C[C@H]1CN2CC[C@H]1C[C@H]2[C@H](O)c1ccnc2ccc(OC)cc12.O.O.O=S(=O)(O)O [QUININE SULFATE] | HH: Evidence of human hepatotoxicity
3 | NC(=O)NO [HYDROXYUREA] | HH: Evidence of human hepatotoxicity
4 | CCCCC1=NC2(CCCC2)C(=O)N1Cc1ccc(-c2ccccc2-c2nnn[nH]2)cc1 [IRBESARTAN] | WE: Weak evidence (<10 case reports) of human hepatotoxicity
5 | CCSCC[C@H](N)C(=O)O (stereo in doubt; form 2) [ETHIONINE] | AH: Evidence for animal hepatotoxicity but not tested in humans
6 | NCC1(CC(=O)O)CCCCC1 [GABAPENTIN] | NE: No evidence of hepatotoxicity in any species
7 | C=C(C)[C@H]1CC=C(C)CC1 [D-LIMONENE] | AH: Evidence for animal hepatotoxicity but not tested in humans
8 | Cc1cc(C2CCCCC2)n(O)c(=O)c1 [CICLOPIROX] | NE: No evidence of hepatotoxicity in any species
9 | Cc1cccc(Nc2cc(Cl)nc(SCC(=O)O)n2)c1C [PIRINIXIC ACID] | AH: Evidence for animal hepatotoxicity but not tested in humans
10 | NC(CO)(CO)CO [TROMETHAMINE] | NE: No evidence of hepatotoxicity in any species
11 | O=C(COc1ccc(Cl)cc1)N1CCN(Cc2ccc3c(c2)OCO3)CC1 [FIPEXIDE] | HH: Evidence of human hepatotoxicity
12 | C[C@H]1C(=O)O[C@@H]2CCN3CC=C(COC(=O)[C@](C)(O)[C@]1(C)O)[C@H]23 [MONOCROTALINE] | AH: Evidence for animal hepatotoxicity but not tested in humans
13 | CCC(=O)O[C@H]1[C@H](O[C@@H]2[C@@H](C)[C@H](O[C@H]3C[C@@](C)(OC)[C@@H](O)[C@H](C)O3)[C@@H](C)C(=O)O[C@H](CC)[C@@](C)(O)[C@H](O)[C@@H](C)C(=O)[C@H](C)C[C@@]2(C)O)O[C@H](C)C[C@@H]1N(C)C.CCCCCCCCCCCCOS(=O)(=O)O [ERYTHROMYCIN ESTOLATE] | HH: Evidence of human hepatotoxicity
14 | C[C@H]1O[C@@H](O[C@H]2[C@@H](O)C[C@H](O[C@H]3[C@@H](O)C[C@H](O[C@H]4CC[C@@]5(C)[C@H](CC[C@@H]6[C@@H]5C[C@@H](O)[C@]5(C)[C@@H](C7=CC(=O)OC7)CC[C@]65O)C4)O[C@@H]3C)O[C@@H]2C)C[C@H](O)[C@@H]1O [DIGOXIN] | NE: No evidence of hepatotoxicity in any species
15 | O=[N+]([O-])O[C@H]1CO[C@H]2[C@@H]1OC[C@H]2O[N+](=O)[O-] [ISOSORBIDE DINITRATE] | NE: No evidence of hepatotoxicity in any species
16 | GENTAMICIN | NE: No evidence of hepatotoxicity in any species
17 | O=c1[nH]c(=O)n([C@@H]2O[C@H](CO)[C@@H](O)[C@@H]2F)cc1I [FIALURIDINE] | HH: Evidence of human hepatotoxicity
18 | Cl.N=C(N)NC(=O)c1nc(Cl)c(N)nc1N.O.O [AMILORIDE HYDROCHLORIDE] | NE: No evidence of hepatotoxicity in any species
19 | O=C(O)/C=C\C(=O)O [MALEIC ACID] | AH: Evidence for animal hepatotoxicity but not tested in humans
20 | CC(C)NCC(O)COc1cccc2ccccc12 (stereo not drawn) [PROPRANOLOL] | NE: No evidence of hepatotoxicity in any species
21 | Cc1oncc1C(=O)Nc1ccc(C(F)(F)F)cc1 [LEFLUNOMIDE] | HH: Evidence of human hepatotoxicity
22 | COc1cc([C@@H]2c3cc4c(cc3[C@@H](O[C@@H]3O[C@@H]5CO[C@@H](C)O[C@H]5[C@H](O)[C@H]3O)[C@H]3COC(=O)[C@H]23)OCO4)cc(OC)c1O [ETOPOSIDE] | HH: Evidence of human hepatotoxicity
23 | CC(C)Cc1ccc(C(C)C(=O)O)cc1 (stereo not drawn) [IBUPROFEN] | WE: Weak evidence (<10 case reports) of human hepatotoxicity
